Results as given in patent US20120157377A1, “METHODS TO ENHANCE NIGHT VISION AND TREATMENT OF NIGHT BLINDNESS” (priority 2012, published 2012).

Legend:
[1] = tested on: humans; test: Case reports: ophthalmic drops instilled into the conjunctival sac for night vision and night blindness; details: micro doses in the ophthalmic drops
[2] = tested on: mice; details: cited from earlier work
[3] = cited from earlier work

SMILES | hallucinogenic or other ill effect [1] | neural impulse generation in the retina in response to amber light ([2]; in the presence of chlorin e6) | neural impulse generation in the retina in response to red and blue light ([2]; in the presence of chlorin e6) | electroretinographic amplitudes in response to red and blue light ([2]; mice administered chlorin e6) | red fluorescence (>640 nm) of eyes versus control mice ([3]; intravenously injected chlorin e6) | fluorescence emission of removed eyes (uptake by the retina) ([3]; mice, 2.00 mg per kilogram body weight intravenously, one hour after administration) | persistence of deposits in the photoreceptors ([3]; mice, intravenous chlorin e6)
CNC1(c2ccccc2Cl)CCCCC1=O (stereo not shown) [ketamine] | no hallucinogenic or other ill effect | – | – | – | – | – | –
C=Cc1c(C)c2cc3nc(c(CC(=O)O)c4[nH]c(cc5nc(cc1[nH]2)C(C)=C5CC)c(C)c4C(=O)O)[C@@H](CCC(=O)O)[C@@H]3C (relative stereo) [chlorin e6] | – | not amber light | almost two-fold increase | two-fold greater | three times more red fluorescence | strong emission band of red florescence centered at 675 nm | remained in the photoreceptors for three hours post administration
